Results: US20040092517A1, “Phenyl derivatives and their use in the treatment of thromboembolic disorders or tumours” (priority 2001, published 2004)
Counter-ions that a name gives are not always drawn.

How the values were obtained:
[1] = target: factor Xa (Homo sapiens, UniProt P00742); assay: Inhibition of factor Xa; format: biochemical
From the text: The inhibition of factor Xa by the compounds according to the invention and the measurement of the anticoagulant and antithrombotic activity can be determined by conventional in-vitro or in-vivo methods. A suitable method is described, for example, by J. Hauptmann et al. in Thrombosis and Haemostasis 1990, 63, 220-223.
The inhibition of factor Xa can be measured, for example, by the method of T. Hara et al. in Thromb. Haemostas. 1994, 71, 314-319.

[2] = target: T1, factor VIIa (Homo sapiens, UniProt P08709); assay: Inhibition of factor VIIa; format: biochemical
T1 sequence (P08709 213-466 limits assumed): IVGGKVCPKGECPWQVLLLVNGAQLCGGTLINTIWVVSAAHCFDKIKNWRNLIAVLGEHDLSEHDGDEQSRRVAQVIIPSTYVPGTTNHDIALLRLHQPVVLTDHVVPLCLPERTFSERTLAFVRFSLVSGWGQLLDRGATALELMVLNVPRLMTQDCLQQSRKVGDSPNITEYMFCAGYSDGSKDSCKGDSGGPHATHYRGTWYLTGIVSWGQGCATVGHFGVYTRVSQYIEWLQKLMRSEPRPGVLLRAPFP
T1 sequence (P08709 61-212 partner limits assumed): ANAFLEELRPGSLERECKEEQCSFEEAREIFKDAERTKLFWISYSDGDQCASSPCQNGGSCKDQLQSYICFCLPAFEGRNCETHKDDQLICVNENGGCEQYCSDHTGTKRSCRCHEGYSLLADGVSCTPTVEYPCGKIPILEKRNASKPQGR
From the text: Coagulation factor VIIa initiates the extrinsic part of the coagulation cascade after binding to tissue factor and contributes to the activation of factor X to give factor Xa. Inhibition of factor VIIa thus prevents the formation of factor Xa and thus subsequent thrombin formation. The inhibition of factor VIIa by the compounds according to the invention and the measurement of the anticoagulant and antithrombotic activity can be determined by conventional in-vitro or in-vivo methods. A conventional method for the measurement of the inhibition of factor VIIa is described, for example, by H. F. Ronning et al. in Thrombosis Research 1996, 84, 73-81.

Sequence of factor Xa (P00742 235-488 limits assumed): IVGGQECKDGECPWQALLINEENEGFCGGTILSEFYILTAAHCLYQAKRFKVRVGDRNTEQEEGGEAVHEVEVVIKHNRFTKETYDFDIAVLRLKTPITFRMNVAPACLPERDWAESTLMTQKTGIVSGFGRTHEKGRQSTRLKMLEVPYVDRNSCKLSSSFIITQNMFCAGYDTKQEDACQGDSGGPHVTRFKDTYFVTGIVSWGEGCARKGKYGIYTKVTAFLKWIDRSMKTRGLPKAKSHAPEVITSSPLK
Sequence of factor Xa (P00742 41-179 partner limits assumed): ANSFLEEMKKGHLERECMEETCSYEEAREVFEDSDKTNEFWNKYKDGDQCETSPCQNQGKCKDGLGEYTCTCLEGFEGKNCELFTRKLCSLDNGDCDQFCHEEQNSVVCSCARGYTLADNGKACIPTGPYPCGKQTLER

IC50 [1] [nM]	IC50 [2] [nM]	SMILES
20	13	N=C(N)c1cccc(NC(=O)C(Nc2ccc(-c3ccccc3S(N)(=O)=O)cc2)c2ccccc2)c1 (stereo not drawn) [Example 5.6, N-(3-amidinophenyl)-2-(2′-aminosulfonylbiphenyl-4-amino)-2-phenylacetamide, trifluoroacetate]
140	550	CC(C)(C)NS(=O)(=O)c1ccccc1-c1ccc(NC(C(=O)Nc2cccc(C(=N)N)c2)c2ccccc2)cc1 (stereo not drawn) [Example 5.5, N-(3-amidinophenyl)-2-(2′-tert-butylaminosulfonylbiphenyl-4-amino)-2-phenylacetamide]

SMILES	IC50 [1] [nM]	IC50 [2] [nM]
CS(=O)(=O)c1ccccc1-c1ccc(OC(C(=O)Nc2cccc(C(=N)N)c2)c2ccccc2)cc1 (stereo not drawn) [Example 1, N-(3-amidinophenyl)-2-(2′-methanesulfonylbiphenyl-4-oxyl)-2-phenylacetamide]	110	46
